Data on eleven molecules can be found in ChEMBL document CHEMBL1201862, “PubChem BioAssay data set” (2004).

Some test systems named below: SK-OV-3; PC-3; OVCAR-3; HCT-15; K562; RXF 393; KM12; ACHN; SW-620; SK-MEL-5; HL-60; HOP-92; LOX IMVI; TK-10; UO-31; MCF7; OVCAR-4; OVCAR-5; SK-MEL-2; NCI-H522.
Experiment in all cases: growth of human tumour cells (NCI), 48 h

Molecules are shown by their SMILES.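 Interpolation was linear, between the two tested concentrations surrounding the appropriate level; five concentrations were tested over 48 hours in 96-well plates. The concentration for 50% growth inhibition is given as GI50.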 Calls of active or inactive are those of the source. No stated cut-off is given here; in the data, active = GI50 up to about 1.1 µM and inactive = higher.

`c1csc(-c2ccsc2-c2ccsc2)c1`: the GI50 with SK-OV-3 is > 100 µM (inactive); in the test on PC-3, 41.3 µM (inactive); in the test with OVCAR-3, 16.8 µM (inactive); in the test on HCT-15, 39.8 µM; in the test on K562, 73.8 µM (inactive); in the test with RXF 393, 25.6 µM (inactive). In addition, the GI50 in the test with KM12 was 48.4 µM (inactive); in the test with ACHN, > 100 µM (inactive); in the test on SW-620 it was > 100 µM (inactive); in the test with SK-MEL-5, 70 µM (inactive); with HL-60, 33.1 µM (inactive); with HOP-92 it was > 100 µM (inactive). Further, the GI50 was > 100 µM (inactive) in the test with LOX IMVI; > 100 µM (inactive) with TK-10; 80 µM (inactive) with UO-31; > 100 µM (inactive) with MCF7; 84.1 µM (inactive) in the test on OVCAR-4; > 100 µM (inactive) in the test with OVCAR-5. Further, the GI50 in the test with SK-MEL-2 was 17.5 µM (inactive).
In the case of `CC1CCCCNC1=S` (stereo unspecified), the GI50 in the test on SK-OV-3 is > 10 µM (inactive); with PC-3, > 10 µM (inactive); with OVCAR-3, > 10 µM (inactive); with HCT-15, greater than 10 µM; in the test with K562, > 10 µM (inactive); with RXF 393, > 10 µM (inactive). In addition, the GI50 with KM12, in the test on ACHN, in the test on SW-620, with SK-MEL-5, in the test on HL-60 and in the test on HOP-92 was > 10 µM (inactive) each time. Further, the GI50 with LOX IMVI, in the test with TK-10, with UO-31, in the test on MCF7, in the test with OVCAR-5 and in the test with SK-MEL-2 was > 10 µM (inactive) each time.
For the molecule `CCC1CN(C(=O)c2ccccc2)C(Cc2c[nH]c3ccccc23)C(=O)C1CC(=O)OC` (stereo unspecified), the GI50 was > 100 µM (inactive) in the test on SK-OV-3; 46 µM (inactive) in the test with PC-3; greater than 100 µM with HCT-15; 47.8 µM (inactive) in the test with K562; > 100 µM (inactive) with RXF 393; 59.2 µM (inactive) with KM12. In addition, the GI50 in the test with NCI-H522 is 50.9 µM (inactive); with ACHN, > 100 µM (inactive); in the test with SW-620, > 100 µM (inactive); in the test on SK-MEL-5 it was 72.8 µM (inactive); with HL-60, 31.6 µM (inactive); with HOP-92, > 100 µM (inactive). For the same molecule, the GI50 in the test on LOX IMVI was 90.6 µM (inactive); in the test with TK-10, > 100 µM (inactive); with UO-31 it was 35.2 µM (inactive); in the test with MCF7 it was 57.5 µM (inactive); in the test with OVCAR-4, > 100 µM (inactive); in the test on OVCAR-5, > 100 µM (inactive). In the test with SK-MEL-2, the GI50 is > 100 µM (inactive).
Regarding `CN(CCNC(=O)c1c[nH]c2c1Cc1ccccc1-2)CCNC(=O)c1c[nH]c2c1Cc1ccccc1-2`, the GI50 in the test on PC-3 is 18.2 µM (inactive); with OVCAR-3 it was 21 µM (inactive); in the test with HCT-15, 30.9 µM; in the test with K562 it was 30.3 µM (inactive); in the test with RXF 393, 30.5 µM (inactive); with KM12, 33.3 µM (inactive). Besides, the GI50 with NCI-H522 is 19.6 µM (inactive); with ACHN it was 43.6 µM (inactive); in the test on SW-620, 39.4 µM (inactive); in the test on SK-MEL-5 it was 21.8 µM (inactive); with HL-60, 31 µM (inactive); with HOP-92, 22.6 µM (inactive). The GI50 is 29.9 µM (inactive) with LOX IMVI; 45.9 µM (inactive) with TK-10; 28.6 µM (inactive) in the test with UO-31; 22.9 µM (inactive) in the test on MCF7; 59.3 µM (inactive) in the test on OVCAR-4; > 100 µM (inactive) in the test with OVCAR-5. The GI50 in the test with SK-MEL-2 is 20.6 µM (inactive).
Consider `CCC(C)[C@@H](NC1=C(Cl)C(=O)c2c(O)ccc(O)c2C1=O)C(=O)OC` (stereo partly specified), for which the GI50 with SK-OV-3 was 6.68 µM (inactive); in the test with PC-3 it was 3.86 µM (inactive); with OVCAR-3 it was 2.79 µM (inactive); in the test on HCT-15, 2.94 µM; with K562 it was 3.59 µM (inactive); in the test on KM12, 3.92 µM (inactive). Also, the GI50 in the test with NCI-H522 was 2.67 µM (inactive); with ACHN, 3.91 µM (inactive); with SW-620, 4.46 µM (inactive); in the test on SK-MEL-5 it was 2.02 µM (inactive); in the test with HL-60, 2 µM (inactive); with HOP-92 it was > 10 µM (inactive). Moreover, the GI50 in the test on LOX IMVI was 3.21 µM (inactive); in the test with TK-10, > 10 µM (inactive); in the test on MCF7, 3.61 µM (inactive); in the test with OVCAR-4, 2.84 µM (inactive); with OVCAR-5 it was 5.12 µM (inactive); with SK-MEL-2, 4.2 µM (inactive).
On to `C1CN(c2nc3c(nnc4nc(N5CCOCC5)sc43)s2)CCO1`, for which the GI50 was > 100 µM (inactive) with PC-3; 78.3 µM (inactive) in the test on OVCAR-3; greater than 100 µM in the test on HCT-15; > 100 µM (inactive) in the test with K562; > 100 µM (inactive) in the test on RXF 393; > 100 µM (inactive) in the test with KM12. The GI50 in the test with NCI-H522 is 45.3 µM (inactive); in the test with ACHN, > 100 µM (inactive); in the test on SW-620 it was > 100 µM (inactive); in the test on SK-MEL-5, > 100 µM (inactive); in the test on HL-60, > 100 µM (inactive); with HOP-92, 29.4 µM (inactive). In addition, the GI50 in the test on LOX IMVI is > 100 µM (inactive); in the test with TK-10 it was > 100 µM (inactive); in the test with UO-31 it was > 100 µM (inactive); in the test with MCF7, 73.3 µM (inactive); in the test on OVCAR-4, > 100 µM (inactive); with OVCAR-5, > 100 µM (inactive). Besides, the GI50 in the test with SK-MEL-2 was > 100 µM (inactive).
Take `CO[C@@H]1C[C@H]2[C@@H]3CC[C@H]([C@H](C)CO)[C@@]3(C)CC[C@@H]2[C@@]2(C)CC[C@H]3C[C@]312`: the GI50 was 27.6 µM (inactive) in the test on PC-3; > 100 µM (inactive) with OVCAR-3; 34 µM in the test on HCT-15; 26 µM (inactive) in the test on K562; 26.2 µM (inactive) in the test with RXF 393; 15.9 µM (inactive) in the test on KM12. For the same molecule, the GI50 is 56 µM (inactive) in the test on NCI-H522; 33.2 µM (inactive) in the test on ACHN; 70.3 µM (inactive) in the test with SW-620; 30.4 µM (inactive) in the test with SK-MEL-5; 20.7 µM (inactive) in the test on HL-60; 21 µM (inactive) with HOP-92. Moreover, the GI50 was 18.8 µM (inactive) with LOX IMVI; > 100 µM (inactive) in the test with TK-10; 53.1 µM (inactive) in the test on UO-31; 19.2 µM (inactive) with MCF7; 55.8 µM (inactive) in the test on OVCAR-4; > 100 µM (inactive) in the test on OVCAR-5.
For `NNC(=O)c1c(SCc2ccccc2)nc2c3ccccc3ccn12`, the GI50 with SK-OV-3 was 27.1 µM (inactive); with PC-3, 17.1 µM (inactive); in the test with OVCAR-3, 2.92 µM (inactive); with HCT-15, 5.66 µM; in the test with K562, 14.7 µM (inactive); in the test on RXF 393 it was 15.2 µM (inactive). The GI50 is 22.6 µM (inactive) in the test with KM12; 15.5 µM (inactive) in the test with NCI-H522; 27.2 µM (inactive) in the test with ACHN; 20.9 µM (inactive) with SW-620; 6.32 µM (inactive) in the test on SK-MEL-5; 9.08 µM (inactive) in the test on HL-60. The GI50 in the test on HOP-92 is 17 µM (inactive); in the test with TK-10 it was 30.9 µM (inactive); with UO-31, 10 µM (inactive); in the test on MCF7 it was 24.2 µM (inactive); with OVCAR-4, 14.5 µM (inactive); with OVCAR-5, 20.5 µM (inactive). Besides, in the test on SK-MEL-2, the GI50 is 28.3 µM (inactive).
On to `COc1ccccc1CNCc1nc2ccccc2[nH]1`, for which the GI50 in the test with PC-3 was > 100 µM (inactive); in the test with OVCAR-3, > 100 µM (inactive); in the test with HCT-15, greater than 100 µM; in the test on K562, > 100 µM (inactive); in the test with RXF 393, > 100 µM (inactive); in the test on KM12, > 100 µM (inactive). For the same molecule, the GI50 in the test with NCI-H522 is > 100 µM (inactive); in the test on ACHN, > 100 µM (inactive); in the test with SW-620, > 100 µM (inactive); in the test on SK-MEL-5 it was 48.5 µM (inactive); in the test with HL-60 it was 80.5 µM (inactive); with HOP-92 it was > 100 µM (inactive). The GI50 in the test with LOX IMVI, in the test on TK-10, in the test with UO-31, in the test on MCF7, in the test on OVCAR-4 and with OVCAR-5 was > 100 µM (inactive) throughout. Also, the GI50 in the test on SK-MEL-2 is > 100 µM (inactive).
Regarding `O=C1c2ccccc2-c2nnc(-c3ccc(Cl)cc3)cc21`, the GI50 in the test with SK-OV-3 is > 10 µM (inactive); with PC-3, > 10 µM (inactive); with OVCAR-3 it was > 10 µM (inactive); with HCT-15, greater than 10 µM; in the test with K562 it was > 10 µM (inactive); in the test with RXF 393, > 10 µM (inactive). Besides, the GI50 with KM12, in the test with NCI-H522, in the test with ACHN, in the test with SW-620, in the test with SK-MEL-5 and with HL-60 was > 10 µM (inactive) in each case. In addition, the GI50 in the test on HOP-92, with LOX IMVI, with UO-31, in the test with MCF7, in the test on OVCAR-4 and in the test with OVCAR-5 was > 10 µM (inactive) throughout. Also, the GI50 in the test on SK-MEL-2 is > 10 µM (inactive).
With `C=C1CC(Cn2cc(C)c(=O)[nH]c2=O)(c2ccc(-c3ccccc3)cc2)OC1=O` (stereo unspecified), the GI50 in the test on SK-OV-3 is 6.53 µM (inactive); in the test on PC-3 it was 2.01 µM (inactive); in the test with OVCAR-3 it was 1.21 µM (inactive); with HCT-15, 1.69 µM; in the test on K562, 0.296 µM (active); in the test on KM12 it was 2.31 µM (inactive). Moreover, the GI50 is 0.841 µM (active) in the test on NCI-H522; 3.07 µM (inactive) in the test on ACHN; 0.546 µM (active) in the test on SW-620; 1.07 µM (active) in the test on SK-MEL-5; 0.415 µM (active) in the test with HL-60; 1.95 µM (inactive) in the test on HOP-92. Also, the GI50 in the test with LOX IMVI is 0.889 µM (active); in the test on TK-10, 1.4 µM (inactive); in the test on UO-31, 5.32 µM (inactive); in the test with MCF7, 1.51 µM (inactive); with OVCAR-4, 2.49 µM (inactive); in the test on OVCAR-5, 9.46 µM (inactive). In addition, in the test with SK-MEL-2, the GI50 is 1.94 µM (inactive).
